Results from ChEMBL document CHEMBL5034010, “Novel Cephalosporin Conjugates Display Potent and Selective Inhibition of Imipenemase-Type Metallo-β-Lactamases” (J Med Chem, 2021).
Values after ≈ are worked out from the molar mass of the structure shown. Active and inactive are the calls of the source. The calls are words filed in the database; no cut-off is given here.

What was measured:
[1] = Binding affinity to Zinc incubated for 2 hrs measured by isothermal titration calorimetric assay
Enterobacter cloacae [2] = experiment: Inhibition of Enterobacter cloacae Metallo-beta-lactamase IMP-1
Klebsiella pneumoniae [3] = experiment: Inhibition of Klebsiella pneumoniae beta Metallo-beta-lactamase IMP-28
[4] = Inhibition of Enterobacter cloacae IMP-1 using nitrocefin chromogenic substrate measured after 15 to 60 min at 25 degC by microplate reader
Escherichia coli [5] = experiment: Inhibition of Metallo-beta-lactamase VIM-2 in Escherichia coli clinical isolate assessed as fold reduction in meropenem MIC at 64 ug/ml; details: dose 64.0 µg/ml
Enterobacter cloacae [6] = experiment: Inhibition of Metallo-beta-lactamase IMP-1 in Enterobacter cloacae clinical isolate assessed as fold reduction in meropenem MIC at 32 ug/ml; details: dose 32.0 µg/ml
Escherichia coli [7] = experiment: Inhibition of Metallo-beta-lactamase VIM-2 in Escherichia coli clinical isolate assessed as MIC for meropenem antibacterial activity at 32 ug/ml (reference value: 8 ug/ml); details: dose 32.0 µg/ml
Escherichia coli [8] = experiment: Inhibition of Metallo-beta-lactamase NDM-1 in Escherichia coli clinical isolate assessed as MIC for meropenem antibacterial activity at 32 ug/ml (reference value: 32 ug/ml); details: dose 32.0 µg/ml
Enterobacter cloacae [9] = experiment: Inhibition of Metallo-beta-lactamase IMP-1 in Enterobacter cloacae clinical isolate assessed as MIC for meropenem antibacterial activity at 64 ug/ml (Rvb =16 ug/ml); details: dose 64.0 µg/ml
Klebsiella pneumoniae [10] = experiment: Antibacterial activity against beta-lactamase IMP-28 producing Klebsiella pneumoniae clinical isolate measured upto 128 ug/ml; format: functional, organism-based
Escherichia coli [11] = experiment: Inhibition of Metallo-beta-lactamase NDM-1 in Escherichia coli clinical isolate assessed as fold reduction in meropenem MIC at 32 ug/ml; details: dose 32.0 µg/ml
Escherichia coli [12] = experiment: Inhibition of Metallo-beta-lactamase NDM-1 in Escherichia coli clinical isolate assessed as fold reduction in meropenem MIC at 128 ug/ml; details: dose 128.0 µg/ml
Escherichia coli [13] = experiment: Inhibition of Metallo-beta-lactamase VIM-2 in Escherichia coli clinical isolate assessed as fold reduction in meropenem MIC at 128 ug/ml; details: dose 128.0 µg/ml
Enterobacter cloacae [14] = experiment: Inhibition of Metallo-beta-lactamase IMP-1 in Enterobacter cloacae clinical isolate assessed as MIC for meropenem antibacterial activity at 32 ug/ml (Rvb =16 ug/ml); details: dose 32.0 µg/ml
[15] = Inhibition of Klebsiella pneumoniae beta-lactamase IMP-28 using nitrocefin chromogenic substrate measured after 15 to 60 min at 25 degC by microplate reader
Escherichia coli [16] = experiment: Inhibition of Metallo-beta-lactamase VIM-2 in Escherichia coli clinical isolate assessed as fold reduction in meropenem MIC at 32 ug/ml; details: dose 32.0 µg/ml
Escherichia coli [17] = experiment: Antibacterial activity against beta-lactamase VIM2 producing Escherichia coli clinical isolate measured upto 128 ug/ml; format: functional, organism-based
Enterobacter cloacae [18] = experiment: Inhibition of Metallo-beta-lactamase IMP-1 in Enterobacter cloacae clinical isolate assessed as MIC for meropenem antibacterial activity at 128 ug/ml (Rvb =16 ug/ml); details: dose 128.0 µg/ml
Escherichia coli [19] = experiment: Inhibition of Metallo-beta-lactamase NDM-1 in Escherichia coli clinical isolate assessed as fold reduction in meropenem MIC at 64 ug/ml; details: dose 64.0 µg/ml
Escherichia coli [20] = experiment: Inhibition of Metallo-beta-lactamase NDM-1 in Escherichia coli clinical isolate assessed as MIC for meropenem antibacterial activity at 64 ug/ml (reference value: 32 ug/ml); details: dose 64.0 µg/ml
[21] = Stability of the compound in Muller hinton broth assessed compound remaining measured after 15 hrs by HPLC analysis; format: physicochemical; details: Mueller Hinton broth, read-out: Stability
Klebsiella pneumoniae [22] = experiment: Inhibition of Metallo-beta-lactamase IMP-28 in Klebsiella pneumoniae clinical isolate assessed as MIC for meropenem antibacterial activity at 32 ug/ml (reference value: 4 ug/ml); details: dose 32.0 µg/ml
Enterobacter cloacae [23] = experiment: Inhibition of Metallo-beta-lactamase IMP-1 in Enterobacter cloacae clinical isolate assessed as fold reduction in meropenem MIC at 128 ug/ml; details: dose 128.0 µg/ml
Klebsiella pneumoniae [24] = experiment: Inhibition of Metallo-beta-lactamase IMP-28 in Klebsiella pneumoniae clinical isolate assessed as fold reduction in meropenem MIC at 32 ug/ml; details: dose 32.0 µg/ml
Klebsiella pneumoniae [25] = experiment: Inhibition of Metallo-beta-lactamase IMP-28 in Klebsiella pneumoniae clinical isolate assessed as fold reduction in meropenem MIC at 128 ug/ml; details: dose 128.0 µg/ml
Klebsiella pneumoniae [26] = experiment: Inhibition of Metallo-beta-lactamase IMP-28 in Klebsiella pneumoniae clinical isolate assessed as MIC for meropenem antibacterial activity at 64 ug/ml (reference value: 4 ug/ml); details: dose 64.0 µg/ml
Klebsiella pneumoniae [27] = experiment: Inhibition of Metallo-beta-lactamase IMP-28 in Klebsiella pneumoniae clinical isolate assessed as fold reduction in meropenem MIC at 64 ug/ml; details: dose 64.0 µg/ml
[28] = Inhibition of Escherichia coli beta-lactamase VIM-2 using nitrocefin chromogenic substrate measured after 15 to 60 min at 25 degC by microplate reader
Klebsiella pneumoniae [29] = experiment: Inhibition of Metallo-beta-lactamase IMP-28 in Klebsiella pneumoniae clinical isolate assessed as MIC for meropenem antibacterial activity at 128 ug/ml (reference value: 4 ug/ml); details: dose 128.0 µg/ml
Escherichia coli [30] = experiment: Inhibition of Metallo-beta-lactamase VIM-2 in Escherichia coli clinical isolate assessed as MIC for meropenem antibacterial activity at 64 ug/ml (reference value: 8 ug/ml); details: dose 64.0 µg/ml
Enterobacter cloacae [31] = experiment: Inhibition of Metallo-beta-lactamase IMP-1 in Enterobacter cloacae clinical isolate assessed as fold reduction in meropenem MIC at 64 ug/ml; details: dose 64.0 µg/ml
Escherichia coli [32] = experiment: Antibacterial activity against beta-lactamase NDM1 producing Escherichia coli clinical isolate measured upto 128 ug/ml; format: functional, organism-based
Escherichia coli [33] = experiment: Inhibition of Metallo-beta-lactamase NDM-1 in Escherichia coli clinical isolate assessed as MIC for meropenem antibacterial activity at 128 ug/ml (reference value: 32 ug/ml); details: dose 128.0 µg/ml
Enterobacter cloacae [34] = experiment: Antibacterial activity against beta-lactamase IMP1 producing Enterobacter cloacae clinical isolate measured upto 128 ug/ml; format: functional, organism-based
Escherichia coli [35] = experiment: Inhibition of Metallo-beta-lactamase VIM-2 in Escherichia coli clinical isolate assessed as MIC for meropenem antibacterial activity at 128 ug/ml (reference value: 8 ug/ml); details: dose 128.0 µg/ml
[36] = Inhibition of Escherichia coli beta-lactamase NDM-1 using nitrocefin chromogenic substrate measured after 15 to 60 min at 25 degC by microplate reader
Klebsiella pneumoniae [37] = experiment: Substrate activity at Klebsiella pneumoniae beta-lactamase IMP-28 assessed as compound hydrolysis by measuring Kcat/Km by Michaelis-Menten analysis
Klebsiella pneumoniae [38] = experiment: Substrate activity at Klebsiella pneumoniae beta-lactamase IMP-28 assessed as compound hydrolysis by measuring Km by Michaelis-Menten analysis
Escherichia coli [39] = experiment: Inhibition of Metallo-beta-lactamase NDM-1 in Escherichia coli clinical isolate assessed as MIC for meropenem antibacterial activity at 128 ug/ml (reference value: 64 ug/ml); details: dose 128.0 µg/ml
Klebsiella pneumoniae [40] = experiment: Substrate activity at Klebsiella pneumoniae beta-lactamase IMP-28 assessed as compound hydrolysis by measuring Kcat by Michaelis-Menten analysis
Escherichia coli [41] = experiment: Inhibition of Metallo-beta-lactamase NDM-1 in Escherichia coli clinical isolate assessed as MIC for meropenem antibacterial activity at 32 ug/ml (reference value: 64 ug/ml); details: dose 32.0 µg/ml
Escherichia coli [42] = experiment: Inhibition of Metallo-beta-lactamase NDM-1 in Escherichia coli clinical isolate assessed as MIC for meropenem antibacterial activity at 64 ug/ml (reference value: 64 ug/ml); details: dose 64.0 µg/ml
[43] = Stability of the compound assessed as Klebsiella pneumoniae beta-lactamase IMP-28-mediated degradation by measuring appearance of vinyl protons release measured after 120 mins by NMR spectra; format: ADME; details: 2 h

Row | SMILES | IC50 [4] [µM] | fold change (FC) (Escherichia coli [5]) | fold change (FC) (Enterobacter cloacae [6]) | MIC (Escherichia coli [7]) [µg/mL] | MIC (Enterobacter cloacae [9]) [µg/mL] | Activity (Klebsiella pneumoniae [10]) | fold change (FC) (Escherichia coli [11]) | fold change (FC) (Escherichia coli [12]) | fold change (FC) (Escherichia coli [13]) | MIC (Enterobacter cloacae [14]) [µg/mL] | IC50 [15] [µM] | fold change (FC) (Escherichia coli [16]) | Activity (Escherichia coli [17]) | MIC (Enterobacter cloacae [18]) [µg/mL] | fold change (FC) (Escherichia coli [19]) | MIC (Klebsiella pneumoniae [22]) [µg/mL] | fold change (FC) (Enterobacter cloacae [23]) | fold change (FC) (Klebsiella pneumoniae [24]) | fold change (FC) (Klebsiella pneumoniae [25]) | MIC (Klebsiella pneumoniae [26]) [µg/mL] | also measured
1 | O=C(Cc1ccccc1)N[C@H](C(=O)O)[C@@H]1N=C(C(=O)O)C(CSC(C(=O)O)c2ccccc2)CS1 (stereo not given in full) | – | – | – | – | – | – | – | – | – | – | – | – | – | – | – | – | – | – | – | – | Kd [1]: 9.67 µM; inhibition (Enterobacter cloacae [2]): Active; inhibition (Klebsiella pneumoniae [3]): Active
2 | O=C(Cc1ccccc1)N[C@@H]1C(=O)N2C(C(=O)O)=C(CSCC(=O)c3ccccc3)CS[C@H]12 | 3.3 | 2 | 2 | 8 (≈ 16.6 µM) | 8 (≈ 16.6 µM) | inactive | 2 | 4 | 2 | 8 (≈ 16.6 µM) | 14 | 1 | inactive | 4 (≈ 8.29 µM) | 4 | 1 (≈ 2.07 µM) | 4 | 4 | 16 | 0.5 (≈ 1.04 µM) | MIC (Escherichia coli [8]): 16 µg/mL (≈ 33.2 µM); MIC (Escherichia coli [20]): 8 µg/mL (≈ 16.6 µM); remaining at 15 h [21]: > 95%; fold change (FC) (Klebsiella pneumoniae [27]): 8; IC50 [28]: 76 µM; MIC (Klebsiella pneumoniae [29]): 0.25 µg/mL (≈ 0.518 µM); MIC (Escherichia coli [30]): 4 µg/mL (≈ 8.29 µM); fold change (FC) (Enterobacter cloacae [31]): 2; Activity (Escherichia coli [32]): inactive; MIC (Escherichia coli [33]): 8 µg/mL (≈ 16.6 µM); Activity (Enterobacter cloacae [34]): inactive; MIC (Escherichia coli [35]): 4 µg/mL (≈ 8.29 µM); IC50 [36]: 77 µM
3 | O=C(Cc1ccccc1)N[C@H](C(=O)O)[C@@H]1N=C(C(=O)O)C(CSC(Cc2ccccc2)C(=O)O)CS1 (stereo not given in full) | – | – | – | – | – | – | – | – | – | – | – | – | – | – | – | – | – | – | – | – | Kd [1]: 3.19 µM; inhibition (Enterobacter cloacae [2]): Active; inhibition (Klebsiella pneumoniae [3]): Active
4 | O=C(Cc1ccccc1)N[C@@H]1C(=O)N2C(C(=O)O)=C(CS[C@@H](Cc3ccccc3)C(=O)O)CS[C@H]12 | 48 | 1 | 2 | 8 (≈ 15.6 µM) | 8 (≈ 15.6 µM) | inactive | 2 | 4 | 2 | 8 (≈ 15.6 µM) | 30 | 1 | inactive | 4 (≈ 7.8 µM) | 2 | 1 (≈ 1.95 µM) | 4 | 4 | 16 | 0.5 (≈ 0.975 µM) | kcat/Km (Klebsiella pneumoniae [37]): 234000 M⁻¹ s⁻¹; Km (Klebsiella pneumoniae [38]): 175 µM; remaining at 15 h [21]: > 95%; MIC (Escherichia coli [39]): 16 µg/mL (≈ 31.2 µM); fold change (FC) (Klebsiella pneumoniae [27]): 8; IC50 [28]: 19 µM; MIC (Klebsiella pneumoniae [29]): 0.25 µg/mL (≈ 0.488 µM); MIC (Escherichia coli [30]): 8 µg/mL (≈ 15.6 µM); kcat (Klebsiella pneumoniae [40]): 41 s⁻¹; fold change (FC) (Enterobacter cloacae [31]): 2; Activity (Escherichia coli [32]): inactive; MIC (Escherichia coli [41]): 32 µg/mL (≈ 62.4 µM); MIC (Escherichia coli [42]): 32 µg/mL (≈ 62.4 µM); Activity (Enterobacter cloacae [34]): inactive; MIC (Escherichia coli [35]): 4 µg/mL (≈ 7.8 µM); IC50 [36]: 51 µM
5 | CC(=O)OCC1=C(C(=O)O)N2C(=O)[C@@H](NC(=O)Cc3ccccc3)[C@H]2SC1 [CEFALORAM] | – | – | – | – | – | – | – | – | – | – | – | – | – | – | – | – | – | – | – | – | Stability [43]: Unstable
6 | O=C(Cc1ccccc1)N[C@@H]1C(=O)N2C(C(=O)O)=C(CSCCc3ccccc3)CS[C@H]12 | 2.2 | 2 | 2 | 8 (≈ 17.1 µM) | 8 (≈ 17.1 µM) | inactive | 2 | 4 | 2 | 8 (≈ 17.1 µM) | 4.3 | 1 | inactive | 8 (≈ 17.1 µM) | 4 | 0.5 (≈ 1.07 µM) | 2 | 8 | 16 | 0.25 (≈ 0.534 µM) | kcat/Km (Klebsiella pneumoniae [37]): 73000 M⁻¹ s⁻¹; Km (Klebsiella pneumoniae [38]): 83.3 µM; MIC (Escherichia coli [39]): 16 µg/mL (≈ 34.1 µM); fold change (FC) (Klebsiella pneumoniae [27]): 16; IC50 [28]: 49 µM; MIC (Klebsiella pneumoniae [29]): 0.25 µg/mL (≈ 0.534 µM); MIC (Escherichia coli [30]): 4 µg/mL (≈ 8.54 µM); kcat (Klebsiella pneumoniae [40]): 6.12 s⁻¹; fold change (FC) (Enterobacter cloacae [31]): 2; Activity (Escherichia coli [32]): inactive; MIC (Escherichia coli [41]): 32 µg/mL (≈ 68.3 µM); MIC (Escherichia coli [42]): 16 µg/mL (≈ 34.1 µM); Activity (Enterobacter cloacae [34]): inactive; MIC (Escherichia coli [35]): 4 µg/mL (≈ 8.54 µM)
